Assay results taken from US20250296960A1, “PEPTIDE COMPOSITIONS AND METHODS OF USE THEREOF” (priority 2022, published 2025).
Numbered stars: 1 amine (or outer) side, 2 acyl side, 3 side chain; on linkers, the order of the positions; unused ones are H or OH. Square brackets hold non-standard residues; d marks the D form. Side chains are listed from the residue outwards. Peptide text beside a SMILES is read from it. * marks the point of attachment. Biotin = O=C1N[C@H]2[C@H](CS[C@H]2CCCCC(=O)*)N1; C18 diacid = O=C(O)CCCCCCCCCCCCCCCCC(=O)*; γGlu = O=C(O)[C@H](CCC(=O)[*:2])N[*:1]; AEEA = NCCOCCOCC(=O)O; Aib = CC(C)(N)C(=O)O

Legend:
[1] = Body weight loss in high fat diet (HFD) mice, 2 weeks; type: in vivo; conditions: 20 nmol/kg s.c. Q2D
Protocol: This study was conducted to confirm the body weight loss effect and select the peptides to be evaluated in high fat diet (HFD) treated mouse, which is widely used as experimental animal model in obesity and diabetes studies. SEQ ID NOs. The peptides were delivered at 0.02% PS80 in PBS and dosing volume was 10 mL/kg. Body weight changes, blood glucose, and food intake were monitored Q2D. Animals were fasted at least 4 hours prior to blood glucose measurement.

human GLP-1R = target: T1, human GLP-1R (Homo sapiens, UniProt P43220); experiment: cAMP assay (HitHunter cAMP) in GLP-1R-expressing CHO-K1 cells (GLP-1R+ cells); type: cell-based; conditions: Table 31
T1 construct: host or cells: CHO-K1
Summary of the method: (§1)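 Luminescent cAMP read-out: after 30 min peptide stimulation at 37 °C in cAMP assay buffer, receptor-expressing CHO-K1 cells (seeded 7×10^3/well the night before) received antibody and detection reagents for 1 h, then Solution A for 3 h, at room temperature in the dark.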

[2] = In vitro enzymatic stability against FaSSIF/P (pancreatin in FaSSIF, pH 6.5); type: in vitro ADME; conditions: simulated gi fluid, pH 6.5, Half-life (min)
Protocol: This study was conducted to determine the enzymatic stability of SEQ ID NOs. 77, 86, 87, 89, 90, and 91 after biotinylation in artificial intestinal environment. The test samples were prepared by mixing stock solutions of peptide and pancreatin dissolved in FaSSIF solution (pH 6.5) in a weight ratio of 25:1. The test samples were incubated at 37° C. for 120 min. The sampling from test samples was proceeded at the predetermined time points (10, 30, 60, and 120 min) and stopped by 10% TFA solution.
Analytical HPLC was performed to determine the remaining amount on an ACQUITY Premier system (Waters, USA) with an ACQUITY CSH C18 column (Waters, USA) at 35° C. using 0.1% TFA in water and acetonitrile. The remaining amount was determined as a percentage of the peak area at the sampling time point relative to the peak area of the initial sample.
For the stability against FaSSIF/P, the test samples were prepared by mixing stock solutions of peptide and pancreatin dissolved in FaSSIF solution (pH 6.5) in a weight ratio of 19:1. The test samples were incubated at 37° C. for 120 min. The sampling from test samples was proceeded at the predetermined time points (10, 30, 60, and 120 min) and stopped by 10% TFA solution.

human GIPR = target: T2, human GIPR (Homo sapiens, UniProt P48546); experiment: cAMP assay (HitHunter cAMP) in GIPR-expressing CHO-K1 cells (GIPR+ cells); type: cell-based; conditions: Table 31
T2 construct: host or cells: CHO-K1
T2 sequence (P48546 22-466): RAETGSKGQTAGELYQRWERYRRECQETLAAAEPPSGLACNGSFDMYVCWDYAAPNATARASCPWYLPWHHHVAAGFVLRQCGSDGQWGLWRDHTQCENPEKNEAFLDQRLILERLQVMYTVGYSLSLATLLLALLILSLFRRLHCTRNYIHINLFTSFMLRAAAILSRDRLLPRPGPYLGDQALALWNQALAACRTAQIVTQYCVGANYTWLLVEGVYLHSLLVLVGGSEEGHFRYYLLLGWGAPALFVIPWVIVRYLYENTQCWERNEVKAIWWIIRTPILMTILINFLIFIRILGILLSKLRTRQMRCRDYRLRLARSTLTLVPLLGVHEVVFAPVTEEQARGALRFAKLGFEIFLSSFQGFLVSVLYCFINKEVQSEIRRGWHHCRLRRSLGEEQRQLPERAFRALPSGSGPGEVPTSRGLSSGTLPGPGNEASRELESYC
Summary of the method: as §1

human GCGR = target: T3, human GCGR (Homo sapiens, UniProt P47871); experiment: cAMP assay (HitHunter cAMP) in GCGR-expressing CHO-K1 cells (GCGR+ cells); type: cell-based; conditions: Table 31
T3 construct: host or cells: CHO-K1
Summary of the method: as §1

T3 sequence (P47871 26-477): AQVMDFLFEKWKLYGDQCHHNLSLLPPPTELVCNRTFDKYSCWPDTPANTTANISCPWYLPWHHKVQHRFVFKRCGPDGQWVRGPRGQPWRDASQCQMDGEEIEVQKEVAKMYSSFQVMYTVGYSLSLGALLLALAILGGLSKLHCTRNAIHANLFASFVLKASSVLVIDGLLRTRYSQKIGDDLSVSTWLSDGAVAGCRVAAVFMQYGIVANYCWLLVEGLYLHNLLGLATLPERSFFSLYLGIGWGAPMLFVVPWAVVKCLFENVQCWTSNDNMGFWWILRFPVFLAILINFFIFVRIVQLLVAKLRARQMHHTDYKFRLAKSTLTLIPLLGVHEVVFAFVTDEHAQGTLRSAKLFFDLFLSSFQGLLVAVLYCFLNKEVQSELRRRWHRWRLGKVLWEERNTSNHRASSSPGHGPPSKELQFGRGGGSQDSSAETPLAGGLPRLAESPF
T1 sequence (P43220 24-463): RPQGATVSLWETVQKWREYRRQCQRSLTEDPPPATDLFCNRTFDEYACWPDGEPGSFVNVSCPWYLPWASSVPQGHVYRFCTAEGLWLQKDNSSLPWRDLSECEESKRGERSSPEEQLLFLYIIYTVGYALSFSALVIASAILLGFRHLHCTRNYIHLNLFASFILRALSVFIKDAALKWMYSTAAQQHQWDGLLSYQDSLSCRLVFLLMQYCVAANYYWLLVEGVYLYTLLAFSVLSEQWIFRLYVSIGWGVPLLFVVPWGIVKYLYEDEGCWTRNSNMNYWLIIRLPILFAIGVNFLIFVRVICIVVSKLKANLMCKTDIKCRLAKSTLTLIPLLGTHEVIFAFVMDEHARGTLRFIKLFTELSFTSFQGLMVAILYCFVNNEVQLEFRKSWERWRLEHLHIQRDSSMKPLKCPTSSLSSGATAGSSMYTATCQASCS

In the case of CSCC[C@H](NC(=O)[C@H](CCCCNC(=O)CCCC[C@@H]1SC[C@@H]2NC(=O)N[C@@H]21)NC(=O)[C@H](CC(=O)O)NC(=O)[C@H](CC(C)C)NC(=O)[C@H](CC(C)C)NC(=O)[C@H](CCCCNC(=O)COCCOCCNC(=O)COCCOCCNC(=O)CC[C@H](NC(=O)CCCCCCCCCCCCCCCCC(=O)O)C(=O)O)NC(=O)[C@H](CO)NC(=O)[C@H](Cc1ccc(O)cc1)NC(=O)[C@H](CC(=O)O)NC(=O)[C@H](CO)NC(=O)[C@@H](NC(=O)[C@H](Cc1ccccc1)NC(=O)[C@@H](NC(=O)CNC(=O)[C@H](CCC(N)=O)NC(=O)C(C)(C)NC(=O)[C@@H](N)Cc1ccc(O)cc1)[C@@H](C)O)[C@@H](C)O)C(=O)N[C@@H](CCSC)C(=O)N[C@@H](CCC(N)=O)C(=O)N[C@@H](CCCNC(=N)N)C(=O)N[C@@H](CC(=O)O)C(=O)N[C@@H](Cc1ccccc1)C(=O)N[C@H](C(=O)N[C@@H](CCC(N)=O)C(=O)N[C@@H](Cc1c[nH]c2ccccc12)C(=O)N[C@@H](CC(C)C)C(=O)N[C@@H](CC(C)C)C(=O)N[C@@H](CCC(=O)O)C(=O)NCC(=O)NCC(=O)N1CCC[C@H]1C(=O)N[C@@H](CO)C(=O)N[C@@H](CO)C(=O)NCC(=O)N[C@@H](C)C(=O)N1CCC[C@H]1C(=O)N1CCC[C@H]1C(=O)N1CCC[C@H]1C(=O)N[C@@H](CO)C(N)=O)C(C)C [compound 86] (H-Y[Aib]QGTFTSDYSK([AEEA-AEEA-γGlu-C18 diacid])LLDK(Biotin)MMQRDFVQWLLEGGPSSGAPPPS-NH2; N-terminus and C-terminus assumed), the “body weight loss effect compared to SEQ ID NO. 77, in words” value [1] is reported as “inferior”, the “Ratio vs. GLP-1R, GLP-1R” value (human GLP-1R) is reported as 100 and the “Relative % to native ligand, GLP-1R” value (human GLP-1R) is reported as 90%. The half-life [2] was 25.4 min, the “Ratio vs. GLP-1R, GIPR” value (human GIPR) was 639 and the “Relative % to native ligand, GIPR” value (human GIPR) was 575%. The “Ratio vs. GLP-1R, GCGR” value (human GCGR) was 157 and the “Relative % to native ligand, GCGR” value (human GCGR) was 142%.
